Results reported in PMC4331650 (Biochimica et Biophysica Acta, 2014).
Positions count from the first letter of the chain named. “Also recorded” adds a separate entry of the source. Where two headings read alike, the source gives them in different places.

What was measured:
N257A CLC-K1 = molecular target: T1, N257A CLC-K1 (Rattus norvegicus, UniProt Q06393, N257A); experiment: NFA effect on N257A CLC-K1 without barttin, voltage clamp in Xenopus oocytes; format: cell-based; conditions: 200 μM NFA
T1 sequence (Q06393 1-687 N257A): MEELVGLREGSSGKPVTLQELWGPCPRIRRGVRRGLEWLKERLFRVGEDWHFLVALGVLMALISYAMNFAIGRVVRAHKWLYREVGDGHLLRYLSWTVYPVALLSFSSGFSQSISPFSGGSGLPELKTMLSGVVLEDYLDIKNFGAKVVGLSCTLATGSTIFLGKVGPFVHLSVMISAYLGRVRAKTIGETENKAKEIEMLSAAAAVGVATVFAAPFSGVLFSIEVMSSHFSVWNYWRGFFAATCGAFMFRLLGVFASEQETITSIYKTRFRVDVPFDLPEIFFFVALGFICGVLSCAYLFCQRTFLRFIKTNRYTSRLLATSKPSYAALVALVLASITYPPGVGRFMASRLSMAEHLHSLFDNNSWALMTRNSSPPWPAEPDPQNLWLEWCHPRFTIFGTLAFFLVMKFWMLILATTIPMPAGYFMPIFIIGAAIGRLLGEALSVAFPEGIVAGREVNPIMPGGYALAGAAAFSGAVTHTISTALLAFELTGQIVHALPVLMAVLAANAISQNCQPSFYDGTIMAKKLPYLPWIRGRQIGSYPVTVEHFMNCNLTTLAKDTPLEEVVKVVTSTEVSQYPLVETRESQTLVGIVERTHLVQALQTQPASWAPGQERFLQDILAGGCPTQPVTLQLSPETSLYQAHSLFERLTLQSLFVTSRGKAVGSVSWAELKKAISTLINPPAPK

WT CLC-Ka = molecular target: T2, WT CLC-Ka (Homo sapiens, UniProt P51800); conditions: Xenopus oocytes, cited from earlier work
T2 sequence (P51800 1-687): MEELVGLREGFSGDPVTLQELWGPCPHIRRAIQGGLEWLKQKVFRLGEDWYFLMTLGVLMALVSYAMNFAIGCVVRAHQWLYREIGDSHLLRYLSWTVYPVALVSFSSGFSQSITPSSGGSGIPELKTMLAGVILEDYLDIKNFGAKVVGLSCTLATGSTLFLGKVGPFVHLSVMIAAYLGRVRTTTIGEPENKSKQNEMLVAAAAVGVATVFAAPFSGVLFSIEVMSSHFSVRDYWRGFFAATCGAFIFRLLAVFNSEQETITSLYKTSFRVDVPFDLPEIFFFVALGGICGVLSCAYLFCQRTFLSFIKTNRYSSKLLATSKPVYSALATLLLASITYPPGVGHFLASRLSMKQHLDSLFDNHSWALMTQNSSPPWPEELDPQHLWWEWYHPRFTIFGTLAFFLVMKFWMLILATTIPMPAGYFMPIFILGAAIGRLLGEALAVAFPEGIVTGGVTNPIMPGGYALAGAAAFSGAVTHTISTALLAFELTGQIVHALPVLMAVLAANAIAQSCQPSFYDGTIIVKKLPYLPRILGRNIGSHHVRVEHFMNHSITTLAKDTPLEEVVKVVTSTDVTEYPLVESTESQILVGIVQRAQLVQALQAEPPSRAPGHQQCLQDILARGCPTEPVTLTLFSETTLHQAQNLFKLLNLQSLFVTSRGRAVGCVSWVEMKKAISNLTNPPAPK
T2 sequence (Q8WZ55 1-320 Y98A partner): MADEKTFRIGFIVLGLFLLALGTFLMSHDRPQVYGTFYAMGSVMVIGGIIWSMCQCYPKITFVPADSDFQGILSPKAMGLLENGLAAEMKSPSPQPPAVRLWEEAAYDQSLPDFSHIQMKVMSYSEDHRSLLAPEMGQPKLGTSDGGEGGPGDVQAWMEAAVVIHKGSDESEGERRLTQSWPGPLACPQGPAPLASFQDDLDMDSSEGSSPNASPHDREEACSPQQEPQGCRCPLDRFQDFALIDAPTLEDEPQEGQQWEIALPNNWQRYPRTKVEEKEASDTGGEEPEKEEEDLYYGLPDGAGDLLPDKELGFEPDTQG

human CLC-Ks = conditions: HEK293 cells; all concentrations tested, from 0.3 to 2000 μM; cited from earlier work
N257A CLC-K1/barttin = molecular target: T3, N257A CLC-K1/barttin (Rattus norvegicus, UniProt Q06393, N257A); experiment: NFA effect on N257A CLC-K1 with barttin, voltage clamp in Xenopus oocytes; format: cell-based; conditions: 200 μM NFA
T3 sequence (Q06393 1-687 N257A): T1 sequence (Q06393 1-687 N257A)
T3 sequence (Q8WZ55 1-320 Y98A partner): T2 sequence (Q8WZ55 1-320 Y98A partner)

CLC-K1/barttin = molecular target: T4, CLC-K1/barttin (Rattus norvegicus, UniProt Q06393); experiment: NFA effect on WT CLC-K1/barttin, voltage clamp in Xenopus oocytes; format: cell-based
T4 sequence (Q06393 1-687): T1 sequence (Q06393 1-687 N257A) with A257N
T4 sequence (Q8WZ55 1-320 Y98A partner): T2 sequence (Q8WZ55 1-320 Y98A partner)

sensitivity to NFA compared with WT (N257A CLC-K1): only weakly more sensitive
sensitivity to NFA compared with WT (N257A CLC-K1/barttin): only weakly more sensitive
currents relative to control conditions (CLC-K1/barttin; 10 μM NFA): about 80%
currents relative to control conditions (CLC-K1/barttin; 200 μM NFA): ~45%
Structure (SMILES): O=C(O)c1cccnc1Nc1cccc(C(F)(F)F)c1 [NFA, niflumic acid]
effect on CLC-Ka currents (WT CLC-Ka; [NFA]ext higher than 0.5 mM): block
effect on CLC-Ka currents (WT CLC-Ka; [NFA]ext ≤ 0.5 mM): increases
effect of NFA on currents (human CLC-Ks): inhibited; also recorded: no longer potentiated
